Measurements as given in publication PMC8058163 (Clinical pharmacology and therapeutics, 2020).
“And” between values parts separate entries of the source, which are not always exact repeats. Equal entries are not always repeated.

What was measured:
OATP1B3 = molecular target: T1, OATP1B3 (Homo sapiens, UniProt Q9NPD5); experiment: Transporter inhibition assay, OATP1B3; type: cell-based; details: cell line (HEK293 or MDCKII) stably expressing OATP1B3
T1 sequence (Q9NPD5 1-702): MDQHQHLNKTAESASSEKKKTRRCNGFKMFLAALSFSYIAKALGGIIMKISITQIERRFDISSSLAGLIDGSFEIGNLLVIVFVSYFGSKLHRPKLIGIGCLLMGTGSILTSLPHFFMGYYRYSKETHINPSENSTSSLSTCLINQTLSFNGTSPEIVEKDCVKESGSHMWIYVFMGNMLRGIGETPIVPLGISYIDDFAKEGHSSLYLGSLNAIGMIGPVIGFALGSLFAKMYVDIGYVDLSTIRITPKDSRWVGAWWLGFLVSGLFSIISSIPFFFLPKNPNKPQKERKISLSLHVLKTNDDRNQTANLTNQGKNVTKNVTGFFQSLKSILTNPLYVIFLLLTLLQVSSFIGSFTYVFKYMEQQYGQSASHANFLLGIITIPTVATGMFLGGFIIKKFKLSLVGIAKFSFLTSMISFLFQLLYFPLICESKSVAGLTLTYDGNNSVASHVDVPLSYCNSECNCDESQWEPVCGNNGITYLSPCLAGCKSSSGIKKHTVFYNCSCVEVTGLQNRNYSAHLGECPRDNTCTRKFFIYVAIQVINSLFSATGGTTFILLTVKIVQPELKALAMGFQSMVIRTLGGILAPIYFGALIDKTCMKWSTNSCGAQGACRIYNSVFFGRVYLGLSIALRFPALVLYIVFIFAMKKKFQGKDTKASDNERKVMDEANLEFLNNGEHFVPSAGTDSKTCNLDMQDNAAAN

[1] = Estimated berberine concentrations and parameters for the basic models; details: 29.8 mg berberine in a 1-gram capsule / 250 mL
MATE2-K = MATE2-K (Homo sapiens, UniProt Q86VL8); experiment: Transporter inhibition assay, MATE2-K; type: cell-based; details: isolated alkaloids, mean [95% CI], three technical replicates
P-gp = P-gp (Homo sapiens, UniProt P08183); experiment: Transporter inhibition assay, P-gp; type: biochemical
all transporters tested = experiment: Transporter inhibition assays, summary over the panel; details: against all transporters tested
OAT1 = molecular target: T2, OAT1 (Homo sapiens, UniProt Q4U2R8); experiment: Transporter inhibition assay, OAT1; type: cell-based; details: cell line (HEK293 or MDCKII) stably expressing OAT1
T2 sequence (Q4U2R8 1-563): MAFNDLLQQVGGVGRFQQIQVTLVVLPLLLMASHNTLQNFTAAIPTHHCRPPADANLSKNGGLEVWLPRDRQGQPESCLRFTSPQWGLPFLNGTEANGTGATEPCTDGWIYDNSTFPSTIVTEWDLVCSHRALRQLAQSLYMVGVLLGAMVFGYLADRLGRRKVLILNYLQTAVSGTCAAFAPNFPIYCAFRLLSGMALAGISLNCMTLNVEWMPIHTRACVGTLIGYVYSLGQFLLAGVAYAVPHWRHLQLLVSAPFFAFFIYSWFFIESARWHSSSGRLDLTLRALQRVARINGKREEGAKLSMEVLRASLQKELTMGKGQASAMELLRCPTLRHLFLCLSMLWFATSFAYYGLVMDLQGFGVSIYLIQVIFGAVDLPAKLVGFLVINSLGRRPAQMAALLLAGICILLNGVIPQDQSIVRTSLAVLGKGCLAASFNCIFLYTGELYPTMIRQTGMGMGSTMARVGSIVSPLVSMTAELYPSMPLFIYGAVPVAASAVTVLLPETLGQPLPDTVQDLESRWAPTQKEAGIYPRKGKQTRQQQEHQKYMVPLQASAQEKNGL

P-gp, sequence (P08183 whole entry): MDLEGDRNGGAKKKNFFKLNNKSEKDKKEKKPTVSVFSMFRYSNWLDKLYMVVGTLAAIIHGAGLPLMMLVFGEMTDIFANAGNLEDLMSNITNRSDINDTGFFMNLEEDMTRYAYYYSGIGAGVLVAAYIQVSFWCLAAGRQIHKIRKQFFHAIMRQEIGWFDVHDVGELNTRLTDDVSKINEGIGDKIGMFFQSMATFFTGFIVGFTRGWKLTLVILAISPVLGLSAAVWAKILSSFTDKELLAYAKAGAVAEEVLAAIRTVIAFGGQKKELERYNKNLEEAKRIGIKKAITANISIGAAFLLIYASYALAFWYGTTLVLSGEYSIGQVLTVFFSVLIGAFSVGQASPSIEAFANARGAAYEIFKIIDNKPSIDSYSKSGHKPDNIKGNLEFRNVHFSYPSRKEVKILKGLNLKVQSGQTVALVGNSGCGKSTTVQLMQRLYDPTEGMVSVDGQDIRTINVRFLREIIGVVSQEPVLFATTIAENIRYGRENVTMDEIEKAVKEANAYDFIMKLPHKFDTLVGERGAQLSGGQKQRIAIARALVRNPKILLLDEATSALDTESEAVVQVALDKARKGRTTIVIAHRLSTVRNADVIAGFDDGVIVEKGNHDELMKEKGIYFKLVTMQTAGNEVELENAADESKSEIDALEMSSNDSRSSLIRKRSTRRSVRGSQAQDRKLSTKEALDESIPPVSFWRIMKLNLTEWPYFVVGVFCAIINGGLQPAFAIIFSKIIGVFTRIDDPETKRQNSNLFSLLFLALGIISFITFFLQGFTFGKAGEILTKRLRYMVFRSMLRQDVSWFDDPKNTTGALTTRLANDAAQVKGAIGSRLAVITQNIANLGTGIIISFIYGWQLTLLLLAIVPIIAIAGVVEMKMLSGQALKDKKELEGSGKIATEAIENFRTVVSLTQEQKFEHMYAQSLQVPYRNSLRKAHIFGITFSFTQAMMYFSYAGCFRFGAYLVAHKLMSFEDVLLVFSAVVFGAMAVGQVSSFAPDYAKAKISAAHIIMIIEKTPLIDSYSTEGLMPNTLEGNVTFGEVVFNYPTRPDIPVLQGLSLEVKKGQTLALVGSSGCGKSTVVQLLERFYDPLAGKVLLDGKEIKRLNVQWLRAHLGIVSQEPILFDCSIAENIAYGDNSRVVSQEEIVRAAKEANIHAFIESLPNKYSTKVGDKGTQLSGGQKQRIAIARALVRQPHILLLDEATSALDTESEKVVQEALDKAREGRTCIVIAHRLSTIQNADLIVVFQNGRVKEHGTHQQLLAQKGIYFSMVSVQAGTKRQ
MATE2-K, sequence (Q86VL8 1-566 isoform Q86VL8-3): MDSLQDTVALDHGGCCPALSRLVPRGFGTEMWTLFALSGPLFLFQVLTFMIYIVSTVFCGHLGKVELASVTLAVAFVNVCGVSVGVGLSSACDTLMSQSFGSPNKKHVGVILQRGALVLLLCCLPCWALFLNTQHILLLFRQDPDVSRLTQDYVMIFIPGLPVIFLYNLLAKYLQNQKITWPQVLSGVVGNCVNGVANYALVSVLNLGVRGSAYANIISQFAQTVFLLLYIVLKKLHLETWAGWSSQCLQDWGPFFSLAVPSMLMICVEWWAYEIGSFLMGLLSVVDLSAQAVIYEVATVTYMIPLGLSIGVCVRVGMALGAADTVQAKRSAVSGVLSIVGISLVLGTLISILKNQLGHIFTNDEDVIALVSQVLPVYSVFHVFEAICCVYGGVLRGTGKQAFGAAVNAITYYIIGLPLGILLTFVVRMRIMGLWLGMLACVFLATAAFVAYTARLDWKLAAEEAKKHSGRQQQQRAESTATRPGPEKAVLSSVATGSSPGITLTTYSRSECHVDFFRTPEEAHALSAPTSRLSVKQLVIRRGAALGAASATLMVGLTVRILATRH

| SMILES | inhibition at 100 μM (OATP1B3) [%] | estimated concentration in the gut (Igut) [1] | IC50 (MATE2-K) | inhibition at 100 μM (P-gp) [%] | IC50 (all transporters tested) [nM] | inhibition at 100 μM (OAT1) [%] |
| --- | --- | --- | --- | --- | --- | --- |
| COc1ccc2cc3[n+](cc2c1OC)CCc1cc2c(cc1-3)OCO2 [Berberine, berberine chloride] | < 20 | ~ 350 μM | < 1000 nM and 770 nM | < 20 | – | – |
| CN1CCc2cc3c(cc2C1O)OCO3 (centres unmarked) [Hydrastinine, hydrastinine chloride monohydrate] | < 20 | – | – | < 20 | ≥ 80000 | < 20 |
